Consider one compound from patent US20180177749A1, “USE OF CYP EXPRESSION TO DIRECT THERAPEUTIC INTERVENTION IN CANCER” (REGENTS OF THE UNIVERSITY OF MINNESOTA, priority 2016, published 2018).

Series [1] deals with CYP3A4 (Δ3-22) (Homo sapiens, UniProt P08684). Description: Spectral binding to soluble truncated CYP3A4. As to conditions: soluble truncated CYP3A4Δ3-22; read-out: spectral dissociation constant (Ks).
For series [2], the system named is MCF-7. Description: MTT cell proliferation assay, MCF-7. The series is classed as cell-based. As to conditions: Homo sapiens, MCF7. The protocol:
Cells were grown at 37° C. in a 5% CO2 incubator. […] MTT was then added (5 mg/ml), and after 2 h of incubation, the plates were centrifuged. The supernatant was removed; DMSO was added, and the absorbance was read at 540 nm with a BioTek 96-well plate reader.

Series [3] relates to T47D. Description: MTT cell proliferation assay, T47D. The series is classed as cell-based, human. The protocol: (§1) The human breast cancer cell lines MCF-7, T47D, and MDA-MB-231 described above were grown in Minimal Essential Medium (MCF-7), RPMI 1640 with insulin (0.2 U/mL) and 1 mM Na pyruvate (T47D) or DMEM containing 10% fetal bovine serum (FBS) (MDA-MB-231), which was defined as complete medium (CM). Cells were grown at 37° C. in a 5% CO2 incubator. […] MTT was then added (5 mg/ml), and after 2 h of incubation, the plates were centrifuged. The supernatant was removed; DMSO was added, and the absorbance was read at 540 nm with a BioTek 96-well plate reader.

Series [4] has as its system MDA-MB-231. Nature of the series: MTT cell proliferation assay, MDA-MB-231. Format: cell-based, human. The protocol: as §1
The subject of series [5] is MCF-10A. Nature of the series: Cell growth inhibition, MCF-10A non-transformed breast cell line. Format: cell-based. As to conditions: Homo sapiens, ER−[PR−].
The test system of series [6] is MCF-7 cells. Description: Cellular ATP by luminescent assay. The series is classed as cell-based, human. The protocol: Cells were seeded in 96-well tissue culture plate in 100 μL medium per well. After treatment with either vehicle or testing compound for an appropriate length of time, 50 μL mammalian cell lysis solution was added to each well and the plate was shaken for 5 minutes on an orbital shaker. To each well, 50 μL luminescent substrate and luciferase solution were then added. After incubation in the dark for 10 minutes, the luminescence measured. Cellular ATP levels were then calculated against a standard curve generated with ATP standards of known concentration.

In series [7] the test system is MCF-7 cells. Description: Cellular EET levels by LC-ESI/MS/MS. Format: cell-based, human. Particulars: metformin 5 mM, 6 hours. The protocol: Samples were submitted to liquid chromatography-electrospray ionization/multiple reaction monitoring/mass spectrometry (LC-ESI/MRM/MS) analysis in a Thermo Electron Quantum Discovery Max triple quadrupole mass spectrometer (Thermo Finnigan, San Jose, Calif.) coupled with an Agilent 1100 HPLC (Santa Clara, Calif.), using argon as the collision gas. Negative ion monitoring was performed at the following diagnostic product ions: 319 m/z→155 m/z for 8,9-EET; 319 m/z→179 m/z for 11,12-EET; 319 m/z→219 m/z for 14,15-EET; 339 m/z→163 m/z for 8,9-[13C20]EET; 339 m/z→233 m/z for 11,12-[13C20]EET; and 339 m/z→259 m/z for 14,15-[^13C20]EET. Base-line resolution of EET regioisomers was achieved on a Phenomenex Luna C18 (2) reverse phase capillary column (250×0.5 mm, 5-μm particles) using the following mobile phase combinations: isocratic 5% B for 5 min, gradient 5-70% B for 5 min, hold at 70% for 30 min and then 95% for 10 min; A: 0.01% acetic acid in water, B: 0.01% acetic acid in acetonitrile; […] flow rate. A standard curve was obtained by linear regression of the peak area ratio of authentic EET regioisomers against internal standards. The amount of EETs in samples was calculated according to the standard curve. The (±)-5,6-EET regioisomer was not measured because it undergoes rapid internal degradation. […]

Series [8] relates to MCF-7 xenograft. The protocol: 17-β-estradiol (E2) was given in drinking water at 1 μM beginning the day of tumor implantation. […] Tumors were collected from each mouse after sacrifice and endpoint tumor weights were measured.
N=20 mice per arm for each study; error bars represent SEM.
In the HBB dose optimization model, mammary fat pad injection was performed with the MCF-7 cell line as described above, and tumors were allowed to grow until an average tumor volume of 50 mm^3. Mice were randomized, and tumor growth was monitored. Estradiol (1 μM) was present in the drinking water as above. Cremophor was administered weekly in the vehicle and HBB groups so that paclitaxel could be used in subsequent chemotherapy synergy studies (unpublished data). Mice were dosed at 6 mg/kg/day ip 4 days of 7 with no more than 2 consecutive days dosing and weighed daily. […] Tumors were harvested at the endpoint of the study following sacrifice by isoflurane anesthesia followed by cervical dislocation. Organs were harvested for histopathological assay of end organ toxicity.

Series [9] can be described thus: MTD for daily dosing by two-fold dose escalation in tumor-bearing mice. The series is classed as in vivo.
Series [10] is described as follows: Plasma concentration after ip dosing. The series is classed as in vivo, mice. Particulars: 1 hour after the daily dose, 4 mg/kg/day ip.

SMILES strings stand for the structures. pIC50, pKd: −log10 of the molar value. Read-outs that look alike come from different tables or passages of the source. Bounds are passed on as bounds.

Chain of CYP3A4 (Δ3-22) (P08684 with tags, fused parts or gaps): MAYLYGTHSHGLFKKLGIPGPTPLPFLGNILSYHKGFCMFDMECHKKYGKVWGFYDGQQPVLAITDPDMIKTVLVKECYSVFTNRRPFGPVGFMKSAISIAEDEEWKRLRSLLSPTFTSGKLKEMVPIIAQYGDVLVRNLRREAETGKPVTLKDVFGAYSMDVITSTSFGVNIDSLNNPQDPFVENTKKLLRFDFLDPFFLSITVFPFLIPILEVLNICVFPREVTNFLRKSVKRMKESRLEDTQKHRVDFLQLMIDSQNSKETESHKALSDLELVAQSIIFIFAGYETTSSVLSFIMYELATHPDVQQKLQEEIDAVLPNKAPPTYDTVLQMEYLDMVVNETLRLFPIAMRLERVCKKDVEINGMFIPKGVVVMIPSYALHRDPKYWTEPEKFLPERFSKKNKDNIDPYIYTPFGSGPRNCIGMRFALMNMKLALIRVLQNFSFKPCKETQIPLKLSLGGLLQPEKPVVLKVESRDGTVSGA

As for `CCCCCCNC(=N)NC(=N)NCc1ccccc1` [HBB, N1-hexyl-N5-benzyl-biguanide], the pKd in series [1] was 3.79. The pIC50 in series [2] (MCF-7, ER+[PR+]HER2−, read-out: IC50) is 4.70; in series [2] (read-out: IC50 MCF-7), 4.70; in [3] (Homo sapiens, ER+[PR+]) it was 4.60; in series [4] (Homo sapiens, MDA-MB-231, Triple negative), 4.69; in series [5], 4.69. For the same compound, the “growth inhibition abrogated by concurrent (±)-14,15-EET” value in series [3] ((±)-14,15-EET 1 μM, 24 hours) is listed as “abrogated most of the inhibition”; in series [4] (MDA-MB-231, (±)-14,15-EET 1 μM, 24 hours), “no dependence on (±)-14,15-EET”. In [6] (6 hours), this compound returned an ATP depletion of 30%. Moreover, the “total cellular ATP levels” value in [6] (6 hours of treatment, metformin 5 mM) is listed as “reduced”. The “cellular EET levels” value in series [7] is “doesn't lower total EET levels”. The “end point tumor weights lower than control” value in [8] (4 mg/kg/day ip) is recorded as 34%. Also, the tumor growth entry in series [8] (4 mg/kg/day ip) is recorded as “slower growth”; in [8] (6 mg/kg ip 4 of 7 days (24 mg/kg/week), from 50 mm^3) it was “significant reduction of tumor growth”. Moreover, the “end point tumor weight (mean±SEM)” value in [8] (4 mg/kg/day ip, n=19) turned out to be 220 ± 35 mg; in series [8] (24 mg/kg/week ip, n=13) it was 127 ± 16 mg. Also, in series [8] (24 mg/kg/week ip), the “end point tumor weights lower than PBS group” value was 48%. For the same compound, in [8] (mouse, in vivo, ip, 6 mg/kg/day), the “weight decline vs. control” value is listed as above 5%. Besides, in series [9] (8 mg/kg/day ip, cohorts of 5 tumor-bearing mice), the lethality result is recorded as “animal deaths within 3 days”. In series [9] (athymic nude (Foxn1nu/Foxn1nu), mouse, in vivo, ip), the MTD is 4 mg/kg/day. The plasma concentration in series [10] was 530 nM.
